Assays:
[1] = target: High affinity cAMP-specific and IBMX-insensitive 3',5'-cyclic phosphodiesterase 8A (Homo sapiens, UniProt O60658); assay: Phosphodiesterase (PDE) Inhibition Assay
[2] = target: T1, Isoform 4 of Dual 3',5'-cyclic-AMP and -GMP phosphodiesterase 11A (PDE11A1) 35-489] (Homo sapiens, UniProt Q9HCR9); assay: Phosphodiesterase (PDE) Inhibition Assay
T1 sequence (Q9HCR9 whole entry): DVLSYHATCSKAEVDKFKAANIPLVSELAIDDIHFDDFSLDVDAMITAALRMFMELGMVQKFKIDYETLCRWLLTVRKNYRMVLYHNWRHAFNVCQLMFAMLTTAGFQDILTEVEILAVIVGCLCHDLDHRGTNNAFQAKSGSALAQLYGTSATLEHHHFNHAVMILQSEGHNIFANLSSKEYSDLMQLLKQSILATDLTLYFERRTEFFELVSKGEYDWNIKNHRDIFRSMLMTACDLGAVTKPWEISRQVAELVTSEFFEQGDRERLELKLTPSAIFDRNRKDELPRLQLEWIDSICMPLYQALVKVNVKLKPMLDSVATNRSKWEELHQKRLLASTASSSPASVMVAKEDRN

[3] = target: T2, cAMP and cAMP-inhibited cGMP 3',5'-cyclic phosphodiesterase 10A [432-779] (Homo sapiens, UniProt Q9Y233); assay: Phosphodiesterase (PDE) Inhibition Assay
T2 construct: 432-779
T2 sequence (Q9Y233 708-1055): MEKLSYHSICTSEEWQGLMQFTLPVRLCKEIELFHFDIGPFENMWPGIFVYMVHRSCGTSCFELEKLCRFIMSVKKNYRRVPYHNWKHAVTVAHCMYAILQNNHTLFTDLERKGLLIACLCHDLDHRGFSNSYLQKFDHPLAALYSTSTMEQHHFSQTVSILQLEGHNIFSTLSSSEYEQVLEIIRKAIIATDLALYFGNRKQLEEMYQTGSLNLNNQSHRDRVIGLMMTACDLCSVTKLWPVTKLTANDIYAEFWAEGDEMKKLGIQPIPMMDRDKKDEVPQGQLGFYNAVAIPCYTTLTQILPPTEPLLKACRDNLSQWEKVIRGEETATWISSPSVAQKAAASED

[4] = target: T3, cGMP-dependent 3',5'-cyclic phosphodiesterase [574-941] (Homo sapiens, UniProt O00408); assay: Phosphodiesterase (PDE) Inhibition Assay
T3 construct: 574-941
T3 sequence (O00408 574-941): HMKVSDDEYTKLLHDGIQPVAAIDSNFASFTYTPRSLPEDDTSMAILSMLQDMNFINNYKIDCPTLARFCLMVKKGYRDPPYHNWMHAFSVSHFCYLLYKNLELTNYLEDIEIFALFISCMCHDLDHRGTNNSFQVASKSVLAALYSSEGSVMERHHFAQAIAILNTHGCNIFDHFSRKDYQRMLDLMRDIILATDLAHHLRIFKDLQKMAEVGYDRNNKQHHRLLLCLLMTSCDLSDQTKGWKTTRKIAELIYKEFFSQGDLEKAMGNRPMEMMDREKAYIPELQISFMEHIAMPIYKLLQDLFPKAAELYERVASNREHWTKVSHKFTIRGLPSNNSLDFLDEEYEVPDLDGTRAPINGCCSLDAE

[5] = target: Dual specificity calcium/calmodulin-dependent 3',5'-cyclic nucleotide phosphodiesterase 1B (Homo sapiens, UniProt Q01064); assay: Phosphodiesterase (PDE) Inhibition Assay; conditions: pH 7.5; 30 °C
Chain of Dual specificity calcium/calmodulin-dependent 3',5'-cyclic nucleotide phosphodiesterase 1B (Q01064 whole entry): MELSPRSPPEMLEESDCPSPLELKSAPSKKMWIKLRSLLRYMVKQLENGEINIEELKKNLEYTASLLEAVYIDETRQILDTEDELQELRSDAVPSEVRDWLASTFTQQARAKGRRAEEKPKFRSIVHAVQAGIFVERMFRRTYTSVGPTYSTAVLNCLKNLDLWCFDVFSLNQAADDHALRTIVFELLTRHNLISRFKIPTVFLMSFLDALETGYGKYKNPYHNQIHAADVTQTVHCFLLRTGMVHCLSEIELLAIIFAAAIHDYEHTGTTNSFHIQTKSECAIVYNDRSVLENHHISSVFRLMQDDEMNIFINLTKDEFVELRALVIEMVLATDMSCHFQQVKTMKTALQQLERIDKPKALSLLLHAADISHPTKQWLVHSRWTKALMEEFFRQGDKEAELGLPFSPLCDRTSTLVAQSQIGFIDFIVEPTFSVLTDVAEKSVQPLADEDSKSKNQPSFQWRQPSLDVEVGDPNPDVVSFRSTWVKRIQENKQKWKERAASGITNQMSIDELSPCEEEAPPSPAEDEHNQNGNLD

[6] = target: T4, cAMP-specific 3',5'-cyclic phosphodiesterase 7B [91-450] (Homo sapiens, UniProt Q9NP56); assay: Phosphodiesterase (PDE) Inhibition Assay
T4 construct: 91-450
T4 sequence (Q9NP56 91-450): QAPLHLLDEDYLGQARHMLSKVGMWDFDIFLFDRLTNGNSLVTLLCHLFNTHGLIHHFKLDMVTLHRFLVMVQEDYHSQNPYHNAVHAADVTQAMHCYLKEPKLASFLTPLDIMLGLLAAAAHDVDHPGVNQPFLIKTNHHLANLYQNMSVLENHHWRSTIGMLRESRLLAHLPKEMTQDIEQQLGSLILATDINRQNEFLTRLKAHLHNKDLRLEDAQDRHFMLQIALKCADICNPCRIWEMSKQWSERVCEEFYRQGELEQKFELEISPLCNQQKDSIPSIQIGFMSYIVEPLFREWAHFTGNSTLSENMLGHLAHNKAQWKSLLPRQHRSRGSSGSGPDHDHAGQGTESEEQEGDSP

[7] = target: T5, cGMP-inhibited 3',5'-cyclic phosphodiesterase 3B [650-1084] (Homo sapiens, UniProt Q13370); assay: Phosphodiesterase (PDE) Inhibition Assay
T5 construct: 650-1084
T5 sequence (Q13370 650-1084): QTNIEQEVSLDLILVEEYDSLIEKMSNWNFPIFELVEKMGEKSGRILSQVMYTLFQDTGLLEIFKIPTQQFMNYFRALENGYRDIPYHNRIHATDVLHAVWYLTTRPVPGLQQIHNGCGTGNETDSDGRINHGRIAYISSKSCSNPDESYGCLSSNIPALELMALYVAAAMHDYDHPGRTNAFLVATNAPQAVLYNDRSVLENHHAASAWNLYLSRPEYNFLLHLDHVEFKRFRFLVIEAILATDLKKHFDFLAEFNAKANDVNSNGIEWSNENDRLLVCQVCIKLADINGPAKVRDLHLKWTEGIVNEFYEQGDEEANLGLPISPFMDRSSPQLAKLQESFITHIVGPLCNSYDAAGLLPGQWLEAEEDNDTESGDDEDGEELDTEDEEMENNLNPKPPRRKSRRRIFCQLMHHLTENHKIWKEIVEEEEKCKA

[8] = target: T6, High affinity cGMP-specific 3',5'-cyclic phosphodiesterase 9A [226-593] (Homo sapiens, UniProt O76083)
T6 construct: 226-593
T6 sequence (O76083 226-593): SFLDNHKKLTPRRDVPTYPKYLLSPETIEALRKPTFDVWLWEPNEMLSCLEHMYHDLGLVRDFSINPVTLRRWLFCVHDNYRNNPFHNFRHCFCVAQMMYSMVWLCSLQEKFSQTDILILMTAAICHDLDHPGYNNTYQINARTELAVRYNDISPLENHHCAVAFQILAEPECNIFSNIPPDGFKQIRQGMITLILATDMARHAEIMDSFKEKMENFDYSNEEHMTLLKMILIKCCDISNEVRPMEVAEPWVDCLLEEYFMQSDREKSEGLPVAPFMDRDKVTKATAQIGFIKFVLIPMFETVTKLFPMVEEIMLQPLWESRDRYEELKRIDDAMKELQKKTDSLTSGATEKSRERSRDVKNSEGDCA

[9] = target: T7, cGMP-specific 3',5'-cyclic phosphodiesterase [531-875] (Homo sapiens, UniProt O76074); assay: Phosphodiesterase (PDE) Inhibition Assay
T7 construct: 531-875

[10] = target: cAMP-specific 3',5'-cyclic phosphodiesterase 4D [372-376,381-715,S375G,I381V,S383G,G384S,V385H,K386M) (Homo sapiens, UniProt Q08499, S375G/I381V/S383G/G384S/V385H/K386M); assay: Phosphodiesterase (PDE) Inhibition Assay

Chain of High affinity cAMP-specific and IBMX-insensitive 3',5'-cyclic phosphodiesterase 8A (O60658 whole entry, canonical isoform): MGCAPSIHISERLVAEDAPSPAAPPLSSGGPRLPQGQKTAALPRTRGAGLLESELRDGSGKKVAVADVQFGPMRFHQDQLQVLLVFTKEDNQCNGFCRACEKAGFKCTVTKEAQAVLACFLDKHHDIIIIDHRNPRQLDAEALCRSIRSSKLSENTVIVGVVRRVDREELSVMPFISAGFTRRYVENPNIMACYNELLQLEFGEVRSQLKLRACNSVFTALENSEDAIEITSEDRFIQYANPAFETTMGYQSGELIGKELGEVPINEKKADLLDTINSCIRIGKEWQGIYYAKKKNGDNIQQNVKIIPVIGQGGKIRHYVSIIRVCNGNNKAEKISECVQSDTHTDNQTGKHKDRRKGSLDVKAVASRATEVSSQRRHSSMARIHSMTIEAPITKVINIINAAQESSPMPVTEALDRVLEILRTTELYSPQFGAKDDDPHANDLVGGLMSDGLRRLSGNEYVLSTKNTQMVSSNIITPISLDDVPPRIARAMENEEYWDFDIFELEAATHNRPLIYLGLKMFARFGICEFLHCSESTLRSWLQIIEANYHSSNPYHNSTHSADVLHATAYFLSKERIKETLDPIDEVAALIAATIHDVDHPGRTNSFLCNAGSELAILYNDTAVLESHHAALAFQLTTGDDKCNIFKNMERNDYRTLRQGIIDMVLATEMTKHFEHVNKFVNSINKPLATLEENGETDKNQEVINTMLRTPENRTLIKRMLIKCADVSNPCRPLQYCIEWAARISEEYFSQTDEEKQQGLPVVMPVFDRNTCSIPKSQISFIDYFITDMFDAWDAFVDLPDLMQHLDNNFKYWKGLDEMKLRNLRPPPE

| Compound | IC50 [1] [µM] | IC50 [3] [µM] | IC50 [4] [µM] | IC50 [2] [µM] | IC50 [5] [µM] | IC50 [6] [µM] | IC50 [7] [µM] | IC50 [8] [µM] | IC50 ([4]; pH 7.5, 30 °C) [µM] | IC50 [9] [µM] | IC50 [10] [nM] |
| --- | --- | --- | --- | --- | --- | --- | --- | --- | --- | --- | --- |
| COc1ccc([C@@H]2CNC(=O)C2)cc1OC1CCCC1 (racemic) [Adeo] | > 200 | – | – | > 200 | > 200 | > 200 | > 200 | > 200 | > 200 | – | – |
| COc1ccc(C(=O)Nc2c(Cl)cncc2Cl)cc1OC1CCCC1 [3-(cyclopentyloxy)-N-(3,5-dichloropyridin-4-yl)-4-methoxybenzamide] | > 200 | – | 54 | 1.6 | 68 | – | 11 | > 200 | – | 3.5 | – |
| COc1cc(-c2ccc(=O)[nH]n2)ccc1OC(F)F [6-[4-(difluoromethoxy)-3-methoxyphenyl]-2,3-dihydropyridazin-3-one] | 160 | 14 | – | 140 | > 200 | – | 1.5 | > 200 | > 200 | 81 | – |
| COc1ccc(C(C)=NOC(N)=O)cc1OC1CCCC1 [(E)-{1-[3-(cyclopentyloxy)-4-methoxyphenyl]ethylidene}amino carbamate] | 120 | 27 | – | 57 | 190 | 0.99 | 9.4 | > 200 | 89 | 53 | 1000 |
| O=C(Nc1c(Cl)cncc1Cl)c1ccc(OC(F)F)c(OCC2CC2)c1 [DAXAS] | > 200 | > 200 | > 200 | 25 | > 200 | > 200 | > 200 | > 200 | – | 17 | – |

Second part, led by results:

| IC50 [1] [µM] | IC50 [3] [µM] | IC50 [4] [µM] | Compound | IC50 [2] [µM] | IC50 [5] [µM] | IC50 [6] [µM] | IC50 [7] [µM] | IC50 [8] [µM] | IC50 ([4]; pH 7.5, 30 °C) [µM] | IC50 [9] [µM] | IC50 [10] [nM] |
| --- | --- | --- | --- | --- | --- | --- | --- | --- | --- | --- | --- |
| 57 | 0.88 | 3.1 | CCCc1nc(C)c2c(=O)[nH]c(-c3cc(S(=O)(=O)N4CCN(CC)CC4)ccc3OCC)nn12 | 0.24 | – | – | – | – | – | – | – |
| > 200 | 19 | 130 | CN1CC(=O)N2[C@H](c3ccc4c(c3)OCO4)c3[nH]c4ccccc4c3C[C@@H]2C1=O | – | 50 | 74 | 280 | 150 | – | – | – |
| > 200 | 63 | – | CCCOc1cc(C2(C)CNC(=O)O2)ccc1OC (racemic) [5-(4-methoxy-3-propoxyphenyl)-5-methyl-1,3-oxazolidin-2-one] | > 200 | > 200 | – | > 200 | > 200 | > 200 | > 200 | – |
| 7 | 73 | – | COc1ccc(C2(C#N)CCC(C(=O)O)CC2)cc1OC1CCCC1 (stereo not drawn) [Ariflo] | 21 | 87 | – | 87 | > 200 | 160 | 53 | – |

Source: BindingDB's records for doi:10.1016/j.str.2004.10.004 (Plexxikon, 2004)
